Measured values taken from ChEMBL document CHEMBL1212738, “Phenotypic and genotypic characterization of Enterobacteriaceae with decreased susceptibility to carbapenems: results from large hospital-based surveillance studies in China” (2010).
≈ marks a conversion by molar mass, not a printed value.

What was measured:
Klebsiella pneumoniae [1] = assay: Antimicrobial activity against Klebsiella pneumoniae FZ47T expressing IMP-8, TEM-1, CTX-M-14, qnrB2, aac(6')-Ib by CLSI method; format: functional
Citrobacter freundii [2] = assay: Antimicrobial activity against Citrobacter freundii RJ78 expressing CMY-2, qnrA1, aac(6')-Ib-cr, ompC by CLSI method; format: functional
Enterobacter cloacae [3] = assay: Antimicrobial activity against carbapenem-resistant Enterobacter cloacae SZ93 deficient in ompC by CLSI method; format: functional
Escherichia coli [4] = assay: Antimicrobial activity against carbapenem-resistant Escherichia coli PU96 deficient in TEM-1, CTX-M-14, CMY-2, ompC/F by CLSI method; format: functional
Klebsiella aerogenes = assay: Antimicrobial activity against carbapenem-resistant Enterobacter aerogenes WH85 deficient in TEM-1, CTX-M-3, ompC/F by CLSI method; format: functional
Escherichia coli [5] = assay: Antimicrobial activity against carbapenem-resistant Escherichia coli PU60 deficient in TEM-1, CMY-2, ompC/F by CLSI method; format: functional
Klebsiella pneumoniae [6] = assay: Antimicrobial activity against carbapenem-resistant Klebsiella pneumoniae PU105 deficient TEM-1, SHV-12, CTX-M-14, DHA-1, qnrB10/B4-like, aac(6')-Ib-cr, ompK35/36 by CLSI method; format: functional
Klebsiella pneumoniae [7] = assay: Antimicrobial activity against carbapenem-resistant Klebsiella pneumoniae ZJ18 deficient in KPC-2, SHV-28, DHA-1, ompK35 by CLSI method; format: functional
Klebsiella pneumoniae [8] = assay: Antimicrobial activity against carbapenem-resistant Klebsiella pneumoniae PU104 deficient in TEM-1, SHV-11, CTX-M-15, qnrS1, ompK35/36 by CLSI method; format: functional
Escherichia coli [9] = assay: Antimicrobial activity against Escherichia coli HX74T expressing CTX-M-3 by CLSI method; format: functional
Klebsiella pneumoniae [10] = assay: Antimicrobial activity against Klebsiella pneumoniae GZ64 expressing IMP-4, ompK35/36 by CLSI method; format: functional
Citrobacter freundii [11] = assay: Antimicrobial activity against Citrobacter freundii SZ63T expressing IMP-4, qnrS1by CLSI method; format: functional
Klebsiella pneumoniae [12] = assay: Antimicrobial activity against carbapenem-resistant Klebsiella pneumoniae PU4 deficient in SHV-1, DHA-1, ompK35/36 by CLSI method; format: functional
Escherichia coli [13] = assay: Antimicrobial activity against carbapenem-resistant Escherichia coli PU102 deficient in TEM-1, CTX-M-14, CMY-2, aac(6')-Ib, ompC DEc, ompF by CLSI method; format: functional
Klebsiella pneumoniae [14] = assay: Antimicrobial activity against Klebsiella pneumoniae WH97 expressing SHV-33, aac(6')-Ib, ompK35 DE by CLSI method; format: functional
Klebsiella pneumoniae [15] = assay: Antimicrobial activity against Klebsiella pneumoniae WH76 expressing IMP-4, TEM-1, SHV-14, CTX-M-3, qnrS1 by CLSI method; format: functional
Enterobacter cloacae [16] = assay: Antimicrobial activity against carbapenem-resistant Enterobacter cloacae RJ94 deficient in IMP-4, TEM-1, CTX-M-3, ompC by CLSI method; format: functional
Escherichia coli [17] = assay: Antimicrobial activity against Escherichia coli PU60T expressing CMY-2 by CLSI method; format: functional
Klebsiella pneumoniae [18] = assay: Antimicrobial activity against carbapenem-resistant Klebsiella pneumoniae GZ83 deficient in SHV-11, CTX-M-14, ompK35/36 by CLSI method; format: functional
Klebsiella pneumoniae [19] = assay: Antimicrobial activity against Klebsiella pneumoniae ZJ70T expressing KPC-2 by CLSI method; format: functional
Escherichia coli [20] = assay: Antimicrobial activity against Escherichia coli C600 by CLSI method; format: functional
Escherichia coli [21] = assay: Antimicrobial activity against Escherichia coli ZJ87 expressing KPC-2, TEM-1, ompC by CLSI method; format: functional
Enterobacter cloacae [22] = assay: Antimicrobial activity against carbapenem-resistant Enterobacter cloacae GX56 deficient in ompC and expressing low levels of ompF DE by CLSI method; format: functional
Klebsiella pneumoniae [23] = assay: Antimicrobial activity against carbapenem-resistant Klebsiella pneumoniae PU5 deficient in SHV-12, DHA-1, aac(6')-Ib-cr, ompK35/36 by CLSI method; format: functional
Klebsiella pneumoniae [24] = assay: Antimicrobial activity against carbapenem-resistant Klebsiella pneumoniae CY75 deficient in SHV-11, DHA-1, ompK35/36 by CLSI method; format: functional
Klebsiella pneumoniae [25] = assay: Antimicrobial activity against carbapenem-resistant Klebsiella pneumoniae SX67 deficient in SHV-2, CTX-M-14, DHA-1, qnrB6/S1, aac(6')-Ib-cr, ompK35/36 by CLSI method; format: functional
Enterobacter cloacae [26] = assay: Antimicrobial activity against carbapenem-resistant Enterobacter cloacae NJ90 deficient in CTX-M-14, ompC/F by CLSI method; format: functional
Escherichia coli [27] = assay: Antimicrobial activity against Escherichia coli PU101T expressing CMY-2 by CLSI method; format: functional
Enterobacter cloacae [28] = assay: Antimicrobial activity against carbapenem-resistant Enterobacter cloacae GX24 deficient in TEM-1, DHA-1, aac(6')-Ib, ompC by CLSI method; format: functional
Klebsiella pneumoniae [29] = assay: Antimicrobial activity against carbapenem-resistant Klebsiella pneumoniae ZJ68 deficient in CTX-M-15, ompK35/36 by CLSI method
Escherichia coli [30] = assay: Antimicrobial activity against Escherichia coli C600 transconjugant GZ66T expressing SHV-11, DHA-1 by CLSI method
Escherichia coli [31] = assay: Antimicrobial activity against Escherichia coli C600 transconjugant WH76T expressing IMP-4, TEM-1, CTX-M-3, qnrS1 by CLSI method

## POLYMYXIN B
Klebsiella pneumoniae [1]
  MIC: 0.25 µg/mL
Citrobacter freundii [2]
  MIC: 2 µg/mL
Enterobacter cloacae [3]
  MIC: > 32 µg/mL
Escherichia coli [4]
  MIC: 0.5 µg/mL
Klebsiella aerogenes
  MIC: 0.5 µg/mL
Escherichia coli [5]
  MIC: 0.5 µg/mL
Klebsiella pneumoniae [6]
  MIC: 32 µg/mL
Klebsiella pneumoniae [7]
  MIC: 0.5 µg/mL
Klebsiella pneumoniae [8]
  MIC: 0.5 µg/mL
Escherichia coli [9]
  MIC: 0.25 µg/mL
Klebsiella pneumoniae [10]
  MIC: 0.5 µg/mL
Citrobacter freundii [11]
  MIC: 0.5 µg/mL
Klebsiella pneumoniae [12]
  MIC: 0.5 µg/mL
Escherichia coli [13]
  MIC: 0.5 µg/mL
Klebsiella pneumoniae [14]
  MIC: 0.5 µg/mL
Klebsiella pneumoniae [15]
  MIC: 1 µg/mL
Enterobacter cloacae [16]
  MIC: 0.5 µg/mL
Escherichia coli [17]
  MIC: 0.25 µg/mL
Klebsiella pneumoniae [18]
  MIC: 1 µg/mL
Klebsiella pneumoniae [19]
  MIC: 0.25 µg/mL
Escherichia coli [20]
  MIC: 0.5 µg/mL
Escherichia coli [21]
  MIC: 0.5 µg/mL
Enterobacter cloacae [22]
  MIC: 0.5 µg/mL
Klebsiella pneumoniae [23]
  MIC: 1 µg/mL
Klebsiella pneumoniae [24]
  MIC: 1 µg/mL
Klebsiella pneumoniae [25]
  MIC: 1 µg/mL
Enterobacter cloacae [26]
  MIC: 0.5 µg/mL
Escherichia coli [27]
  MIC: 0.25 µg/mL
Enterobacter cloacae [28]
  MIC: 2 µg/mL

## NCC[C@H](O)C(=O)N[C@@H]1C[C@H](N)[C@@H](O[C@H]2O[C@H](CN)[C@@H](O)[C@H](O)[C@H]2O)[C@H](O)[C@H]1O[C@H]1O[C@H](CO)[C@@H](O)[C@H](N)[C@H]1O [AMIKACIN]
Klebsiella pneumoniae [1]
  MIC: > 256 µg/mL
Citrobacter freundii [2]
  MIC: 8 µg/mL (≈ 13.7 µM)
Enterobacter cloacae [3]
  MIC: 1 µg/mL (≈ 1.71 µM)
Escherichia coli [4]
  MIC: 2 µg/mL (≈ 3.42 µM)
Klebsiella aerogenes
  MIC: 1 µg/mL (≈ 1.71 µM)
Escherichia coli [5]
  MIC: 32 µg/mL (≈ 54.6 µM)
Klebsiella pneumoniae [6]
  MIC: > 256 µg/mL
Klebsiella pneumoniae [7]
  MIC: > 256 µg/mL
Klebsiella pneumoniae [8]
  MIC: 0.5 µg/mL (≈ 0.854 µM)
Escherichia coli [9]
  MIC: 2 µg/mL (≈ 3.42 µM)
Klebsiella pneumoniae [29]
  MIC: > 256 µg/mL
Klebsiella pneumoniae [10]
  MIC: 1 µg/mL (≈ 1.71 µM)
Citrobacter freundii [11]
  MIC: > 256 µg/mL
Klebsiella pneumoniae [12]
  MIC: > 256 µg/mL
Escherichia coli [13]
  MIC: 64 µg/mL (≈ 109 µM)
Klebsiella pneumoniae [14]
  MIC: 1 µg/mL (≈ 1.71 µM)
Escherichia coli [30]
  MIC: > 256 µg/mL
Escherichia coli [31]
  MIC: 1 µg/mL (≈ 1.71 µM)
Klebsiella pneumoniae [15]
  MIC: 1 µg/mL (≈ 1.71 µM)
Enterobacter cloacae [16]
  MIC: 0.5 µg/mL (≈ 0.854 µM)
Escherichia coli [17]
  MIC: 1 µg/mL (≈ 1.71 µM)
Klebsiella pneumoniae [18]
  MIC: > 256 µg/mL
Klebsiella pneumoniae [19]
  MIC: 1 µg/mL (≈ 1.71 µM)
Escherichia coli [20]
  MIC: 1 µg/mL (≈ 1.71 µM)
Escherichia coli [21]
  MIC: 1 µg/mL (≈ 1.71 µM)
Enterobacter cloacae [22]
  MIC: > 256 µg/mL
Klebsiella pneumoniae [23]
  MIC: > 256 µg/mL
Klebsiella pneumoniae [24]
  MIC: 2 µg/mL (≈ 3.42 µM)
Klebsiella pneumoniae [25]
  MIC: > 256 µg/mL
Enterobacter cloacae [26]
  MIC: > 256 µg/mL
Escherichia coli [27]
  MIC: 1 µg/mL (≈ 1.71 µM)
Enterobacter cloacae [28]
  MIC: > 256 µg/mL

## C[C@@H](O)[C@H]1C(=O)N2C(C(=O)O)=C(S[C@@H]3CN[C@H](C(=O)N(C)C)C3)[C@H](C)[C@H]12 [MEROPENEM]
Klebsiella pneumoniae [1]
  MIC: 1 µg/mL (≈ 2.61 µM)
Citrobacter freundii [2]
  MIC: 2 µg/mL (≈ 5.22 µM)
Enterobacter cloacae [3]
  MIC: 0.125 µg/mL (≈ 0.326 µM)
Escherichia coli [4]
  MIC: 8 µg/mL (≈ 20.9 µM)
Klebsiella aerogenes
  MIC: 8 µg/mL (≈ 20.9 µM)
Escherichia coli [5]
  MIC: 8 µg/mL (≈ 20.9 µM)
Klebsiella pneumoniae [7]
  MIC: 8 µg/mL (≈ 20.9 µM)
Klebsiella pneumoniae [8]
  MIC: 8 µg/mL (≈ 20.9 µM)
Escherichia coli [9]
  MIC: 0.064 µg/mL (≈ 0.167 µM)
Klebsiella pneumoniae [29]
  MIC: 8 µg/mL (≈ 20.9 µM)
Klebsiella pneumoniae [10]
  MIC: 8 µg/mL (≈ 20.9 µM)
Citrobacter freundii [11]
  MIC: 4 µg/mL (≈ 10.4 µM)
Klebsiella pneumoniae [12]
  MIC: 4 µg/mL (≈ 10.4 µM)
Escherichia coli [13]
  MIC: 8 µg/mL (≈ 20.9 µM)
Klebsiella pneumoniae [14]
  MIC: 2 µg/mL (≈ 5.22 µM)
Escherichia coli [30]
  MIC: 0.032 µg/mL (≈ 0.0834 µM)
Enterobacter cloacae [16]
  MIC: 8 µg/mL (≈ 20.9 µM)
Escherichia coli [17]
  MIC: 0.032 µg/mL (≈ 0.0834 µM)
Klebsiella pneumoniae [18]
  MIC: 8 µg/mL (≈ 20.9 µM)
Klebsiella pneumoniae [19]
  MIC: 8 µg/mL (≈ 20.9 µM)
Escherichia coli [20]
  MIC: 0.03 µg/mL (≈ 0.0782 µM)
Escherichia coli [21]
  MIC: 8 µg/mL (≈ 20.9 µM)
Enterobacter cloacae [22]
  MIC: 4 µg/mL (≈ 10.4 µM)
Klebsiella pneumoniae [23]
  MIC: 8 µg/mL (≈ 20.9 µM)
Klebsiella pneumoniae [24]
  MIC: 8 µg/mL (≈ 20.9 µM)
Klebsiella pneumoniae [25]
  MIC: 2 µg/mL (≈ 5.22 µM)
Escherichia coli [27]
  MIC: 0.032 µg/mL (≈ 0.0834 µM)
Enterobacter cloacae [28]
  MIC: 2 µg/mL (≈ 5.22 µM)

## CO/N=C(\C(=O)N[C@@H]1C(=O)N2C(C(=O)O)=C(COC(C)=O)CS[C@H]12)c1csc(N)n1 [CEFOTAXIME]
Klebsiella pneumoniae [1]
  MIC: 128 µg/mL (≈ 281 µM)
Citrobacter freundii [2]
  MIC: 256 µg/mL (≈ 562 µM)
Enterobacter cloacae [3]
  MIC: 1 µg/mL (≈ 2.2 µM)
Escherichia coli [4]
  MIC: > 256 µg/mL
Klebsiella aerogenes
  MIC: > 256 µg/mL
Escherichia coli [5]
  MIC: 256 µg/mL (≈ 562 µM)
Klebsiella pneumoniae [6]
  MIC: > 256 µg/mL
Klebsiella pneumoniae [7]
  MIC: 128 µg/mL (≈ 281 µM)
Klebsiella pneumoniae [8]
  MIC: > 256 µg/mL
Escherichia coli [9]
  MIC: > 256 µg/mL
Klebsiella pneumoniae [29]
  MIC: > 256 µg/mL
Klebsiella pneumoniae [10]
  MIC: 256 µg/mL (≈ 562 µM)
Citrobacter freundii [11]
  MIC: 256 µg/mL (≈ 562 µM)
Klebsiella pneumoniae [12]
  MIC: 16 µg/mL (≈ 35.1 µM)
Escherichia coli [13]
  MIC: > 256 µg/mL
Klebsiella pneumoniae [14]
  MIC: 128 µg/mL (≈ 281 µM)
Escherichia coli [30]
  MIC: 16 µg/mL (≈ 35.1 µM)
Escherichia coli [31]
  MIC: 256 µg/mL (≈ 562 µM)
Klebsiella pneumoniae [15]
  MIC: 128 µg/mL (≈ 281 µM)
Enterobacter cloacae [16]
  MIC: > 256 µg/mL
Escherichia coli [17]
  MIC: 16 µg/mL (≈ 35.1 µM)
Klebsiella pneumoniae [18]
  MIC: > 256 µg/mL
Klebsiella pneumoniae [19]
  MIC: 64 µg/mL (≈ 141 µM)
Escherichia coli [20]
  MIC: 0.13 µg/mL (≈ 0.285 µM)
Escherichia coli [21]
  MIC: 64 µg/mL (≈ 141 µM)
Enterobacter cloacae [22]
  MIC: > 256 µg/mL
Klebsiella pneumoniae [23]
  MIC: > 256 µg/mL
Klebsiella pneumoniae [24]
  MIC: > 256 µg/mL
Klebsiella pneumoniae [25]
  MIC: > 256 µg/mL
Enterobacter cloacae [26]
  MIC: > 256 µg/mL
Escherichia coli [27]
  MIC: 128 µg/mL (≈ 281 µM)
Enterobacter cloacae [28]
  MIC: 256 µg/mL (≈ 562 µM)
